Test results as given in patent publication US11001591B2, “TRAF 6 inhibitors” (HELMHOLTZ ZENTRUM MUENCHEN—DEUTSCHES FORSCHUNGSZENTRUM FÜR …, priority 2016, dated 2021).
Read-outs that look alike come from different tables or passages of the source.

Tests used:
hERG = molecular target: T1, hERG (Homo sapiens, UniProt Q12809); assay: hERG predictor assay; type: in vitro ADME
T1 construct: Bienta/Enamine Ltd. (contract lab)
Protocol: (§1) All ADME (plasma stability, plasma protein binding, microsomal stability, Log D, Caco-2 assay, CYP450 inhibition and hERG predictor assay) as well as pharmacokinetic studies (Tmax, Cmax, AUC0-240 min, Mean Residence Time, Elimination half life, Elimination rate constant, Volume of Distribution and Clearance) of C25-140 (compound 3) were conducted by Bienta Enamine Biology Services of Bienta/Enamine Ltd.

E6AP = molecular target: T2, E6AP (Homo sapiens, UniProt Q05086); assay: In vitro ubiquitination assay, E6AP; type: biochemical; conditions: HECT E3 ligase
T2 construct: purchased Boston Biochem one of K-102, K-260, K-200B, K-220, K-240, K-270
T2 sequence (Q05086 whole entry): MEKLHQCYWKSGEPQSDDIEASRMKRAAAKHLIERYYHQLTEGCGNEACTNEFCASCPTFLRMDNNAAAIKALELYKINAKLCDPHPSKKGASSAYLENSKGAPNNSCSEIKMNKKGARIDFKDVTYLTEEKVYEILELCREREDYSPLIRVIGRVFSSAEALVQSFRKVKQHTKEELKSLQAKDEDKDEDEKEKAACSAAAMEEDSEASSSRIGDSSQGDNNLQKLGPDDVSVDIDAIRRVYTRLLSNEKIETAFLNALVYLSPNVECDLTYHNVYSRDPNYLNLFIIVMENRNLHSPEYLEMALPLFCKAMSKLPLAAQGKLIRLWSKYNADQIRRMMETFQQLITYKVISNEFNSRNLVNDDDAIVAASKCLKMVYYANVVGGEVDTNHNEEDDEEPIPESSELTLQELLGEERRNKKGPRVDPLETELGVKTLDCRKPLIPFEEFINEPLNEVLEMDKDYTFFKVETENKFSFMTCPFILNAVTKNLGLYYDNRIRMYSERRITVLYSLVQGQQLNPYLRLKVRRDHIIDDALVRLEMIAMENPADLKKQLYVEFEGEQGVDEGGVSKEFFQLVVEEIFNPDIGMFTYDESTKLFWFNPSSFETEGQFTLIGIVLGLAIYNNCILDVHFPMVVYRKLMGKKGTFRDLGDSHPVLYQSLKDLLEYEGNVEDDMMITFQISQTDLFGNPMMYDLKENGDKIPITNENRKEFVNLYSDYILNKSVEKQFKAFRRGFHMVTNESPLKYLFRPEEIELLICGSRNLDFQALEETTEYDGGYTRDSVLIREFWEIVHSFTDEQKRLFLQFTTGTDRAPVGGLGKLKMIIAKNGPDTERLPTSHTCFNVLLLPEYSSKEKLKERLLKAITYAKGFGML
Protocol: For analysis of clAP1, MDM2, TRIM63, RNF4, ITCH and E6AP mediated poly-ubiquitination, the respective ubiquitin ligase kit from Boston Biochem (K-102, K-260, K-200B, K-220, K-240 and K-270) was used. Here, reaction buffer, E1, E2 and E3 enzyme (and p53 substrate in case of MDM2) were mixed and pre-incubated with compound or DMSO for 5 minutes at room temperature before adding Mg^2+-ATP and mono-ubiquitin for reaction start. Ubiquitination was visualized by Western Blot analyses.

BJAB (GCB DLBCL) = assay: Cell viability in DLBCL, BJAB; type: cell-based; conditions: 30 μM added at day 0, 4 and 8; 9 days
Protocol: To determine the effects of C25-140 on MYD88-dependent ABC-DLBCL, we chose the HBL1 (ABC-DLBCL-MYD88 L265P), U2932 (ABC DLBCL-MYD88 wt) and BJAB (GCB DLBCL) cell lines. 1×10^6 cells of each cell line was seeded in 5 ml and treated with 30 μM compound C25-140 (compound 3) or DMSO. The entire experiment was carried out for 9 days. Every day 500 μl were taken and viable cell number was acquired using the ViCEII cell counter (Beckmann Coulter). At days 4 and 8 of the experiment the volume was again adjusted to 5 ml and samples were supplemented with 30 μM compound C25-140 or DMSO. This process was necessary to ensure linear proliferation of DMSO treated cells. All curves of C25-140 treated samples were referred to the corresponding DMSO treated controls.

[1] = test system: Diet-Induced-Obesity (DIO) mice; assay: Diet-Induced-Obesity (DIO) mouse study; type: in vivo; conditions: 7.4 mg/kg IP once daily
Protocol: For MEF cells, 1.2×10^5 cells per sample were seeded, treated with compound for 6 hours and stimulated with either IL-1β or TNFα for 60 minutes. Jurkat T-cells and primary mouse CD4^+ T-cells were seeded at 2×10^5 cells per sample, also treated with compound for 6 hours and stimulated with PMA/lonomycin for 3 hours. RNA was isolated according to the manufacturer's protocol of the Qiagen RNeasy Kit (MEF cells) or the STRATEC INVITRAP® SPIN UNIVERSAL RNA MINI KIT (Jurkat T-cells). The isolation of mRNA from […] white adipose tissue from DIO mice was performed using TRIzol® Reagent according to manufacturer's instruction. To clear the isolated RNA from genomic DNA, samples (up to 5 μg RNA) were treated with RQ1 RNase-Free DNaseI (Promega) as described in the technical manual. For the reverse transcription of RNA into cDNA, the DNaseI digested RNA samples were processed using the SuperScript III First Strand cDNA Synthesis System (Invitrogen/ThermoFisher Scientific) following the manufacturer's protocol. Thereby, random hexamers provided with the kit were used for reverse transcription. cDNA samples were stored at −20° C. For quantification of cDNA in the samples, the LightCylcer480 (Roche) and the KAPA SYBR FAST qPCR Kit were used. For relative quantification, the ΔΔCp method first described by Pfaffl (Pfaffl, M. W., A new mathematical model for relative quantification in real-time RT-PCR. Nucleic Acids Res, 2001. 29(9): p. e45) was applied. The following primer were used for qRT-PCR:
Mice were fed a high-fat-diet until they reached a body weight of at least 40 g and developed […]. These mice were separated in control group and a group for C25-140 (compound 3) injection. Mice were treated every day with 14 μmol/kg (=7.4 mg/kg) C25-140 intraperitoneally for a period of 20 days. Thereby, C25-140 was dissolved in 2.9% DMSO, 1.5% Tween-80 and 1×PBS. Every day before injection, the body weight and food intake were measured. […]

U2OS cells = assay: Cell growth of osteosarcoma cell line U2OS; type: cell-based
Protocol: For analysis of the cell growth of the osteosarcoma cell line U20S, 5×10^3 cells were seeded in 96 well plates. 18 hours later, cells were treated with C25-140 (compound 3) or DMSO for 6 hours. Using a ^137caesium source (HWM-D2000), selected samples were irradiated with a dose of either 2 Gy or 4 Gy. Cell growth was measured every 24 hours for a period of 7 days by counting Hoechst33342 positive cells in an Operetta High-Content Imaging System (PerkinElmer) and the Harmony/Columbus analysis software (PerkinElmer).

[2] = Pharmacokinetic studies IV, PO, IP; type: in vivo; conditions: for half-life: read-out: in vivo half-life in circulation
Protocol: as §1
The inventors also tested the pharmacokinetics (PK) of C25-140 after intravenous (IV), peroral (PO) and intraperitoneal (IP) injection of each 10 mg/kg compound. All the analyzed data are summarized in FIG. 9B and the concentration/time-course graph for IP administration is shown in FIG. 9C.

T1 sequence (Q12809 whole entry): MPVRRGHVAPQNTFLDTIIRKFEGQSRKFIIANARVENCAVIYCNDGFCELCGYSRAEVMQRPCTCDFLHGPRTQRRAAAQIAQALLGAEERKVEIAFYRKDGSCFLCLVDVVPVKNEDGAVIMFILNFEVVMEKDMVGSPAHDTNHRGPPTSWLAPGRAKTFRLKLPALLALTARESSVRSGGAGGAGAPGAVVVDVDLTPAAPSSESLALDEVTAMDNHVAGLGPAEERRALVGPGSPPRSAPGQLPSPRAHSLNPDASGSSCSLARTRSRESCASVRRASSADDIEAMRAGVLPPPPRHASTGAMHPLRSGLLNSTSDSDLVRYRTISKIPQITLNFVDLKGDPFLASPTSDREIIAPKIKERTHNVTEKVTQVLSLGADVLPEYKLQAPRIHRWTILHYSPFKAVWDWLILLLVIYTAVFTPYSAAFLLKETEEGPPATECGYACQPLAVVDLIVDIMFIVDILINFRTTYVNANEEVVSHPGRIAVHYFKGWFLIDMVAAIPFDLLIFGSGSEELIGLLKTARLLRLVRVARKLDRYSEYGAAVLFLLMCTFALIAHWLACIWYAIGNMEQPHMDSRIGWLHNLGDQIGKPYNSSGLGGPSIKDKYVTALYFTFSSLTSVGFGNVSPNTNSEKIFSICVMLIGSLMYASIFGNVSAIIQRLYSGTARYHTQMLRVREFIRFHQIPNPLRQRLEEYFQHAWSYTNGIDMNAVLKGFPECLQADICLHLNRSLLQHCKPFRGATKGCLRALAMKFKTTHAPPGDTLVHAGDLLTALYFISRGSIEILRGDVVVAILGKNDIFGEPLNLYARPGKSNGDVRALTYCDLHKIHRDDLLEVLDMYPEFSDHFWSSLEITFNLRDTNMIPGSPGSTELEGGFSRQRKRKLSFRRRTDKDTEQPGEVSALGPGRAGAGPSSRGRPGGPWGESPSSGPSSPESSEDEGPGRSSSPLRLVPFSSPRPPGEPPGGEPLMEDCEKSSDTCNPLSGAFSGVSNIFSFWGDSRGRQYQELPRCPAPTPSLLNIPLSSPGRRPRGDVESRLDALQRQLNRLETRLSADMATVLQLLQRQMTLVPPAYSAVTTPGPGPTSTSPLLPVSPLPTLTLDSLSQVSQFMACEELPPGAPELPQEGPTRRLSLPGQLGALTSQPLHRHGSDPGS

S5A ubiquitination by E6AP (E6AP): not affected
food intake ([1]; 20 days, vs vehicle): did not differ
distribution phase ([2]; IV, PO, IP 10 mg/kg): rapid initial distribution phase
half-life ([2]; in vivo, iv, 10 mg/kg): 1.33 h
half-life ([2]; in vivo, po, 10 mg/kg): 2.12 h
bioavailability ([2]; in vivo, po, calculated, 10 mg/kg): ~45%
half-life ([2]; in vivo, IP administration, 10 mg/kg): 3.07 h
SMILES: Cc1nn(-c2ccc3nnc(C)n3n2)c(C)c1CCC(=O)N1CCC(Cc2ccccc2)CC1 [Compound 3, 1-(4-benzylpiperidin-1-yl)-3-(3,5-dimethyl-1-(3-methyl-[1,2,4]triazolo[4,3-b]pyridazin-6-yl)-1H-pyrazol-4-yl)propan-1-one]
hERG inhibition (hERG): does not very much inhibit hERG
viability (cell count) (BJAB (GCB DLBCL)): did not show any difference
body weight gain under high-fat-diet ([1]; 20 days): hardly increased body weight
IL-1β and VCAM mRNA in adipose tissue ([1]; day 20): significantly reduced
cell proliferation, compound alone vs 2Gy irradiation (U2OS cells; 30 μM): same inhibitory impact
cell proliferation, combination with 2Gy irradiation (U2OS cells; 30 μM C25-140+2Gy): boosted the effect to the region of 4Gy irradiation
adverse effects on animals during PK studies ([2]; 10 mg/kg): no obvious adverse effects
